# Data: US20260062443A1 (ALEXION PHARMACEUTICALS, INC., priority 2022, published 2026)
# Molecular target: T1, Human complement C1s enzyme (Homo sapiens, UniProt P09871)
# T1 sequence (P09871 438-688 limits assumed): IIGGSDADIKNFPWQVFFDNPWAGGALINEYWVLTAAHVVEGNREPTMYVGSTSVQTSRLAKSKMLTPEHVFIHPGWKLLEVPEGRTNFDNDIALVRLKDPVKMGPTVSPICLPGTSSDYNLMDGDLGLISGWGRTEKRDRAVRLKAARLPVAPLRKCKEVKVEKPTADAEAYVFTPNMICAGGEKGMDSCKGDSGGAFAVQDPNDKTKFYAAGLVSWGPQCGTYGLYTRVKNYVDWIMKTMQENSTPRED
# T1 sequence (P09871 16-437 partner limits assumed): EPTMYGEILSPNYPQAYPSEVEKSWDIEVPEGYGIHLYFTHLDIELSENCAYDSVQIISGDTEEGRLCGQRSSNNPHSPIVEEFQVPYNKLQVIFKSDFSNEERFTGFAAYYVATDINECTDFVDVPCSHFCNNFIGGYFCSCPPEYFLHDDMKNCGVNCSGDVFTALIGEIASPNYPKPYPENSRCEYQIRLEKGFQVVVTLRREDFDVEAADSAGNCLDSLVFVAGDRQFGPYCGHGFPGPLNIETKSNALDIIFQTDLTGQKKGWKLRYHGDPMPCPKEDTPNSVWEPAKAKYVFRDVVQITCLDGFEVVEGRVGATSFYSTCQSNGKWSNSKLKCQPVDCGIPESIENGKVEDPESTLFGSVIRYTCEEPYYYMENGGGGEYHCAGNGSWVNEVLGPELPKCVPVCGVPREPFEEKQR
# Assay: Human C1s enzyme assay
# Assay type: biochemical
# Details: human complement C1s enzyme 1.16 nM, substrate Z-L-Lys-SBzl 100 μM, 5 min preincubation; read-out: IC50 (Stars), C1s Inhibiting Activity
# How it was run: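 Serum-purified human C1s (1.16 nM final) preincubated 5 min at room temperature with compound in 50 mM Tris, 1 M NaCl, pH 7.5. Z-L-Lys-SBzl and DTNB added at 100 μM each; A405 followed every 30 s for 30 min, and IC50 obtained by nonlinear regression of reaction rates.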
row,Compound,IC50 [nM]
1,"C[C@@]12C[C@@H]1N(C(=O)CNC(=O)c1ccc(Oc3ccccc3)cc1)[C@H](C(=O)NCc1ccc(Cl)cc1)C2 [Compound 373, (1S,3S,5S)-N-(4-chlorobenzyl)-5-methyl-2-((4-phenoxybenzoyl)glycyl)-2-azabicyclo[3.1.0]hexane-3-carboxamide]",> 1000
2,"O=C(NCC(=O)N1CC2(C[C@H]1C(=O)NCc1ccc[nH]1)OCCO2)c1ccc(Oc2ccccc2)cc1 [Compound 14, (S)-N-((1H-pyrrol-2-yl)methyl)-7-((4-phenoxybenzoyl)glycyl)-1,4-dioxa-7-azaspiro[4.4]nonane-8-carboxamide]",> 1000
3,"CC1(C)c2ccccc2-c2cc(C(=O)NCC(=O)N3C[C@H](OC(F)F)C[C@H]3C(=O)NCc3cc4cnccc4[nH]3)ccc21 [Compound 301, (2S,4R)-N-((1H-pyrrolo[3,2-c]pyridin-2-yl)methyl)-4-(difluoromethoxy)-1-((9,9-dimethyl-9H-fluorene-3-carbonyl)glycyl) pyrrolidine-2-carboxamide]",< 100
4,"CC(C)(C)c1ccc(Oc2cccc(C(=O)NCC(=O)N3C[C@H](OC(F)F)C[C@H]3C(=O)NCc3cc4cnccc4[nH]3)c2)cc1 [Compound 273, (2S,4R)-N-((1H-pyrrolo[3,2-c]pyridin-2-yl)methyl)-1-((3-(4-(tert-butyl)phenoxy)benzoyl)glycyl)-4-(difluoromethoxy)pyrrolidine-4-carboxamide]",< 100
5,"O=C(NCC(=O)N1C[C@H](OC(F)F)C[C@H]1C(=O)NCc1ccc2[nH]ccc2n1)c1ccc2c(c1)Oc1ccccc1S2 [Compound 230, (2S,4R)-N-((1H-pyrrolo[3,2-b]pyridin-5-yl)methyl)-4-(difluoromethoxy)-1-((phenoxathiine-3-carbonyl)glycyl)pyrrolidine-2-carboxamide]",> 1000
6,"C[C@@H](NC(=O)[C@@H]1CC(COCCCCN)CN1C(=O)CNC(=O)c1ccc2c(c1)Oc1ccccc1S2)c1cc2cnccc2[nH]1 (stereo partly drawn) [Compound 288, (2S)-N-((R)-1-(1H-pyrrolo[3,2-c]pyridin-2-yl)ethyl)-4-((4-aminobutoxy)methyl)-1-((phenoxathiine-3-carbonyl)glycyl)pyrrolidine-2-carboxamide]",< 100
7,"O=C(NCC(=O)N1C[C@H](OC(F)F)C[C@H]1C(=O)NCc1ccc2cc[nH]c2c1)c1ccc2c(c1)Oc1ccccc1S2 [Compound 196, (2S,4R)-N-((1H-indol-6-yl)methyl)-4-(difluoromethoxy)-1-((phenoxathiine-3-carbonyl)glycyl)pyrrolidine-2-carboxamide]",> 1000
8,"O=C(NCC(=O)N1C[C@H](OC(F)F)C[C@H]1C(=O)N[C@H](CO)c1cc2cnccc2[nH]1)c1ccc(Oc2ccc(F)cc2)cc1 [Compound 98, (2S,4R)-4-(difluoromethoxy)-1-((4-(4-fluorophenoxy)benzoyl)glycyl)-N-((S)-2-hydroxy-1-(1H-pyrrolo[3,2-c]pyridin-2-yl)ethyl)pyrrolidine-2-carboxamide]",100 to 1000

# The next lines start with the values.
row,IC50 [nM],Compound
1,< 100,"Cc1ccc(-c2ccc(C(=O)NCC(=O)N3CC4(C[C@H]3C(=O)NCc3cc5cnccc5[nH]3)OCCO4)cc2)s1 [Compound 297, (S)-N-((1H-pyrrolo[3,2-c]pyridin-2-yl)methyl)-7-((4-(5-methylthiophen-2-yl)benzoyl)glycyl)-1,4-dioxa-7-azaspiro[4.4]nonane-8-carboxamide]"
2,< 100,"O=C(NCC(=O)N1C[C@H](OC(F)F)C[C@H]1C(=O)NCc1cc2cnccn2c1)c1cccc(Oc2ccccc2)c1 [Compound 270, (2S,4R)-4-(difluoromethoxy)-1-((3-phenoxybenzoyl)glycyl)-N-(pyrrolo[1,2-a]pyrazin-7-ylmethyl)pyrrolidine-2-carboxamide]"
3,< 100,"O=C(NCC(=O)N1C[C@H](OC(F)F)C[C@H]1C(=O)NCc1cc2cnccn2c1)c1cccc(Oc2ccc(F)cc2)c1 [Compound 278, (2S,4R)-4-(difluoromethoxy)-1-((3-(4-fluorophenoxy)benzoyl)glycyl)-N-(pyrrolo[1,2-a]pyrazin-7-ylmethyl)pyrrolidine-2-carboxamide]"
4,> 1000,"CC1CCN(C(=O)CNC(=O)c2ccc3c(c2)Oc2ccccc2S3)[C@@H]1C(=O)NCc1cc2cnccc2[nH]1 (stereo partly drawn) [Compound 243, (2S)-N-((1H-pyrrolo[3,2-c]pyridin-2-yl)methyl)-3-methyl-1-((phenoxathiine-3-carbonyl)glycyl)pyrrolidine-2-carboxamide]"
5,100 to 1000,"CS(=O)(=O)[C@@H]1C[C@@H](C(=O)N[C@H](CO)c2cc3cnccc3[nH]2)N(C(=O)CNC(=O)c2ccc3c(c2)-c2ccccc2C3(F)F)C1 [Compound 104, (2S,4R)-1-((9,9-difluoro-9H-fluorene-3-carbonyl)glycyl)-N-((S)-2-hydroxy-1-(1H-pyrrolo[3,2-c]pyridin-2-yl)ethyl)-4-(methylsulfonyl) pyrrolidine-2-carboxamide]"
6,100 to 1000,"C[C@@H](NC(=O)[C@@H]1C[C@@H](OC(F)F)CN1C(=O)CN1Cc2cc(Br)ccc2C1=O)c1cc2cnccc2[nH]1 [Compound 100, (2S,4R)-N-((R)-1-(1H-pyrrolo[3,2-c]pyridin-2-yl)ethyl)-1-(2-(5-bromo-1-oxoisoindolin-2-yl)acetyl)-4-(difluoromethoxy)pyrrolidine-2-carboxamide]"
7,> 1000,"C[C@@]12C[C@@H]1N(C(=O)CNC(=O)c1ccc3c(c1)Oc1ccccc1S3)[C@H](C(=O)NCc1ccc3c(c1)B(O)OC3)C2 [Compound 290, (1S,3S,5S)-N-((1-hydroxy-1,3-dihydrobenzo[c][1,2]oxaborol-6-yl)methyl)-5-methyl-2-((phenoxathiine-3-carbonyl)glycyl)-2-azabicyclo[3.1.0]hexane-3-carboxamide]"
8,< 100,"Cc1ccc(-c2ccc3c(c2)CN(CC(=O)N2C[C@H](OC(F)F)C[C@H]2C(=O)N[C@H](C)c2cc4cnccc4[nH]2)C3=O)c(C)c1 [Compound 106, (2S,4R)-N-((R)-1-(1H-pyrrolo[3,2-c]pyridin-2-yl)ethyl)-4-(difluoromethoxy)-1-(2-(5-(2,4-dimethylphenyl)-1-oxoisoindolin-2-yl)acetyl)pyrrolidine-2-carboxamide]"
9,< 100,"C[C@@H](NC(=O)[C@@H]1C[C@](F)(Cn2ccnc2)CN1C(=O)CNC(=O)c1ccc2c(c1)Oc1ccccc1S2)c1cc2cnccc2[nH]1 [Compound 217, (2S,4S)-4-((1H-imidazol-1-yl)methyl)-N-((R)-1-(1H-pyrrolo[3,2-c]pyridin-2-yl)ethyl)-4-fluoro-1-((phenoxathiine-3-carbonyl)glycyl)pyrrolidine-2-carboxamide]"
10,< 100,"C[C@@H](NC(=O)[C@@H]1C[C@@H](OC(F)F)CN1C(=O)CNC(=O)c1ccc2oc3ccccc3c2c1)c1cc2cnccc2[nH]1 [Compound 220, (2S,4R)-N-((R)-1-(1H-pyrrolo[3,2-c]pyridin-2-yl)ethyl)-1-((dibenzo[b,d]furan-2-carbonyl)glycyl)-4-(difluoromethoxy)pyrrolidine-2-carboxamide]"
11,< 100,"C[C@@H](NC(=O)[C@@H]1C[C@@H](OC(F)F)CN1C(=O)CNC(=O)c1ccc2c(c1)-c1ccccc1C2(F)F)c1cc2cnccc2[nH]1 [Compound 77, (2S,4R)-N-((R)-1-(1H-pyrrolo[3,2-c]pyridin-2-yl)ethyl)-1-((9,9-difluoro-9H-fluorene-3-carbonyl)glycyl)-4-(difluoromethoxy)pyrrolidine-2-carboxamide]"
